Laboratory results published in patent US20050034187A1, “Modified tet-inducible system for regulation of gene expression in plants” (priority 2000, published 2005).

Tests used:
tobacco line pACAG029#4 = conditions: in vivo
Text: FIG. 36—tet-Inducible Herbicide Resistance: Spray Test of F1 Seedlings and Seeds of Tobacco Line pACAG029#4. Seedlings at different stages of development (1 and 2 weeks old), produced by germination in 2.5″×2.5″ pots with Metro mix, were used for assessing tet inducible herbicide resistance in a post-emergence test. For pre-emergency application, seeds were sown on the Metro mix right before PURSUIT®, application. 15-20 seeds were placed in each pot. Pots were sprayed with doxycycline premixed with PURSUIT®, each at different rates. The test was evaluated two weeks after the spray. Each pot in the figure represents a unique experiment in terms of the combination of chemical rates and the stage of seedling development. As shown in the figure, the rate of herbicide resistance directly corresponded with increased doxycycline application rates.
Induction of herbicide resistance in plants growing in soil has been investigated. Transgenic F1 heterozygous tobacco seeds of the line pACAG029#4 (this line has been shown elsewhere herein to provide the best repression/induction in tissue culture tests) ere used for the spray test. Seedlings at different stages of development (1 and 2 weeks old) produced by germination of seeds in 2.5″×2.5″ pots with Metro mix were used for post-emergence test. For pre-emergency application, seeds were sown on the Metro mix right before the application of herbicide. […]

[1] = test system: TripleX/GUS (pAC499) repressed by nTR under control of different promoters; test: Leaf disk induction experiment, GUS assay (double transformants); type: cell-based, tobacco; conditions: Doxy 5 mg/l, leaf disks, FIG. 2
Text: FIG. 2—Induction of GUS Gene in Leaves Expressing NLS-tet Receptor Under Control of Different Promoters. Tobacco plants. already expressing pAC499 (TripleX/GUS) were transformed with […] pCAMBIA-based Agro cassettes carrying NPTII marker gene and nTR under control of 35S, 2×35S, A. thaliana HPPD, A. thaliana AHAS, A. thaliana Actin and (OCS)3MAS promoters (pACAG076, 077, 078, 079, 109 and 084), as well as pAC489 (35S/WtTR) to yield a number of transgenic lines. This collection of tobacco plants was tested in a preliminary induction experiment performed on leaf disks: 5-10 mm leaf disks were excised from plants and put into six- or twelve-well plates with liquid MS medium and with or without Doxy 5 mg/l at 5 mg/l. GUS assays were performed with the tissues 5 days later. Each bar represents one sample; numbers above the bars represent magnitude of induction.
FIG. 3—Induction of GUS Gene In Tobacco Leaves Expressing nTR Under Control of Different Promoters. […]
Evaluation of tet inducible system in plant tissues. […] These plates were cultivated in dark on shaker at 90 rpm for 5 days (three weeks for analysis of induction of herbicide resistance) and then used in assays or evaluated visually. […] Three weeks later the induction of regeneration from these disks was evaluated.

SMILES: C[C@H]1c2cccc(O)c2C(=O)C2=C(O)[C@]3(O)C(=O)C(C(N)=O)=C(O)[C@@H](N(C)C)[C@@H]3[C@@H](O)[C@@H]21 [doxycycline]
- plant injury in spray test (tobacco line pACAG029#4): caused some injury and stunted growth of plants
- magnitude of induction of GUS ([1]; nTR driven by 35S promoter, 5 days): 26 to 76 fold
- maximum induction of GUS ([1]; nTR driven by HPPD and AHAS promoters): 1.4 fold
